System: transmembrane efflux pumps
Test: Ethidium bromide accumulation assay
Type: cell-based, S. aureus MSSA 2
Settings: for efflux inhibition (ethidium bromide accumulation), in words: compared with comparator CCCP, concentrations 25–100 μM; for accumulation of ethidium bromide compared to 100 μM CCCP: compound at 25 μM, relative to CCCP (100 μM)
From the text: The application of antibiotics often leads to oxidative stress in bacteria, which triggers the efflux pump systems that contribute to antimicrobial resistance.[34] Therefore, modulation of the efflux system has been proposed as another plausible target of derivatives. The efflux pump inhibitor carbonyl cyanide 3-chlorophenylhydrazone (CCCP) was used as a comparator in our assay. Its action destroys the proton-motive force at the membrane so that the efflux pump cannot transport substrates out of the cell. One such universal substrate is ethidium bromide, the accumulation of which in the cell can be measured using fluorescence.
The accumulation assay was performed according to previously published methods with minor modifications.[15],[42] Briefly, a bacterial culture of S. aureus MSSA 2 cultured overnight in the presence of colistin (4 mg/L) to induce oxidative stress and activate efflux system[34] was diluted in PBS to OD600 nm = 0.6. The suspension was centrifuged (13,000 × g; 3 min), resuspended in fresh PBS, and distributed into the wells of a black 96-well microtiter plate (ThermoFisher Scientific). Samples were diluted with EtBr solution (4 μg/mL). 50 μL of the mixture was added to 50 μL of the bacterial suspension. The reaction was monitored using SpectraMax iD5Multi-Mode Microplate Reader (ex/em = 530/600 nm) every 60 s for 60 min.

Row | Compound | efflux inhibition (ethidium bromide accumulation), in words | accumulation of ethidium bromide compared to 100 μM CCCP
1 | O=c1c(O)c(-c2ccc(O)c(O)c2)oc2cc(O)cc(O)c12 [compound 4, quercetin, reference compound] | efflux inhibitors | 
2 | O=c1c(O)c(-c2ccc(O)c(O)c2)oc2c(Nc3ccc(F)cc3)c(O)cc(O)c12 [compound 5, 2-(3,4-Dihydroxyphenyl)-8-(4-fluoroanilino)-3,5,7-trihydroxy-4H–1-benzopyran-4-one] |  | 75%
3 | O=c1cc(-c2ccc(O)c(O)c2)oc2cc(O)cc(O)c12 [compound 10, luteolin, reference compound] | significantly better than CCCP at the same concentration (100 μM) | 
4 | O=c1cc(-c2ccc(O)c(O)c2)oc2c(Nc3ccc(F)cc3)c(O)cc(O)c12 [compound 11, 2-(3,4-Dihydroxyphenyl)-8-(4-fluoroanilino)-5,7-dihydroxy-4H–1-benzopyran-4-one] | higher activity than CCCP alone | comparable to 8-(4-fluoroanilino) quercetin (5)
